Source: publication PMC5011342, “A high throughput drug screening assay to identify compounds that promote oligodendrocyte differentiation using acutely dissociated and purified oligodendrocyte precursor cells” (BMC Research Notes, 2016)
Where a name gives a salt, the structure may show the parent alone. Read-outs that look alike come from different tables or passages of the source.

Legend:
[1] = tested on: acutely dissociated and purified rat OPCs; assay: Acute OL differentiation assay (MBP expression/cell, immunofluorescent image quantification); format: cell-based; conditions: sheet "All OLga data"; for activation at 2 µM / activation at 10 µM / activation at 0.4 µM / activation at 0.08 µM: Rattus norvegicus
How it was run: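 This acute differentiation assay used purified rat OPCs from postnatal day 6–7 pups, seeded into PDL/laminin-coated 96-well plates in differentiation medium lacking PDGF and FGF. Compounds were applied in quadruplicate after a 1–2 h preincubation at 37 °C, 10 % CO2, with 0.1 % DMSO negative and 40 ng/ml T3 positive controls in eight wells. After fixation on DIV4, anti-MBP immunofluorescence images yielded MBP expression/cell.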

expanded OPCs = assay: cells; conditions: for viability at 0.1 µM / viability at 1 µM / viability at 10 µM: Rattus norvegicus, 72 h
How it was run: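 Toxicity screen: compounds added at 0.1, 1 and 10 µM to PDGF-AA-expanded OPCs in 96-well plates, 3-day incubation at 37 °C, 10% CO2, then alamarBlue 1:10 for 4 h with fluorescence readout. Results set screening doses of 10/2, 2/0.4 or 0.4/0.08 µM.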

[2] = test compound at 2 uM, NCC library screen, relative to quetiapine
[3] = alamarBlue viability, NCC library compound at 0.1 µM, sheet "All Tox data"
[4] = alamarBlue viability, NCC library compound at 1 µM, sheet "All Tox data"
[5] = alamarBlue viability, NCC library compound at 10 µM, sheet "All Tox data"
[6] = test compound at 2 uM, NCC library screen, relative to quetiapine, read-out: 2 uM (% Quet)
[7] = test compound at 10 uM, NCC library screen, relative to quetiapine, read-out: 10 uM (% Quet)
[8] = alamarBlue viability of expanded OPCs, compound at 0.1 µM, relative to DMSO control
[9] = alamarBlue viability of expanded OPCs, compound at 1 µM, relative to DMSO control
[10] = alamarBlue viability of expanded OPCs, compound at 10 µM, relative to DMSO control
[11] = 0.4 uM test compound, relative to quetiapine, read-out: OL differentiation, 0.4 uM (% Quet)
[12] = 2 uM test compound, relative to quetiapine, read-out: OL differentiation, 2 uM (% Quet)
[13] = read-out: 0.1 µM (% DMSO), alamarBlue viability, NCC library compound at 0.1 µM, sheet "All Tox data"
[14] = read-out: 1 µM (% DMSO), alamarBlue viability, NCC library compound at 1 µM, sheet "All Tox data"
[15] = read-out: 10 µM (% DMSO), alamarBlue viability, NCC library compound at 10 µM, sheet "All Tox data"
[16] = 0.08 uM test compound, relative to quetiapine, read-out: OL differentiation, 0.08 uM (% Quet)
[17] = read-out: 0.1 µM (% DMSO), alamarBlue viability of expanded OPCs, compound at 0.1 µM, sheet All Tox data
[18] = read-out: 1 µM (% DMSO), alamarBlue viability of expanded OPCs, compound at 1 µM, sheet All Tox data
[19] = read-out: 10 µM (% DMSO), alamarBlue viability of expanded OPCs, compound at 10 µM, sheet All Tox data
[20] = 10 uM test compound, relative to quetiapine, read-out: OL differentiation, 10 uM (% Quet)
[21] = test compound at 0.4 uM, MBP expression relative to quetiapine, NCC library screen, read-out: 0.4 uM (% Quet)
[22] = test compound at 2 uM, MBP expression relative to quetiapine, NCC library screen, read-out: 2 uM (% Quet)

Row | SMILES | activation at 2 µM [1, 6] [%] | activation at 10 µM [1, 7] [%] | 0.1 µM (% DMSO) (expanded OPCs; [8]) | 1 µM (% DMSO) (expanded OPCs; [9]) | 10 µM (% DMSO) (expanded OPCs; [10]) | activation at 2 µM [1, 12] [%] | viability at 0.1 µM (expanded OPCs; [17]) [%] | viability at 1 µM (expanded OPCs; [18]) [%] | viability at 10 µM (expanded OPCs; [19]) [%] | other results
1 | CN1CC[C@]2(c3cccc(O)c3)Cc3nc4ccccc4cc3C[C@H]2C1 [SB 205607] |  |  |  |  |  |  |  |  |  | 0.4 uM (% Quet) ([1]; test compound at 0.4 uM, NCC library screen, relative to quetiapine): 15.0 % Quet; 2 uM (% Quet) [1, 2]: 5.9 % Quet; 0.1 µM (% DMSO) (expanded OPCs; [3]): 84.0 % DMSO; 1 µM (% DMSO) (expanded OPCs; [4]): 78.4 % DMSO; 10 µM (% DMSO) (expanded OPCs; [5]): 50.8 % DMSO
2 | Cl.NC1CCN(c2cccc(Cl)n2)CC1 [SR57227A] |  |  |  |  |  |  |  |  |  | OL differentiation, 2 uM (% Quet) ([1]; 2 uM test compound, relative to quetiapine): 13.8 % Quet; OL differentiation, 10 uM (% Quet) ([1]; 10 uM test compound, relative to quetiapine): 30.8 % Quet; 0.1 µM (% DMSO) (expanded OPCs; alamarBlue viability of expanded OPCs, compound at 0.1 µM, sheet All Tox data): 85.7 % DMSO; 1 µM (% DMSO) (expanded OPCs; alamarBlue viability of expanded OPCs, compound at 1 µM, sheet All Tox data): 88.3 % DMSO; 10 µM (% DMSO) (expanded OPCs; alamarBlue viability of expanded OPCs, compound at 10 µM, sheet All Tox data): 77.5 % DMSO
3 | CN(C)[C@@H]1C(O)=C(C(N)=O)C(=O)[C@@]2(O)C(O)=C3C(=O)c4c(O)cccc4C[C@H]3C[C@@H]12 [Sancycline] | 1.8 | 27.4 | 88.7 | 89.0 | 83.0 |  |  |  |  | 
4 | CC(C)(C)NC(=O)[C@@H]1C[C@@H]2CCCC[C@@H]2CN1C[C@@H](O)[C@H](Cc1ccccc1)NC(=O)[C@H](CC(N)=O)NC(=O)c1ccc2ccccc2n1 [Saquinavir] |  |  |  |  |  | -82.7 |  |  |  | activation at 0.4 µM [1, 11]: -24.5%; viability at 0.1 µM (expanded OPCs; [13]): 95%; viability at 1 µM (expanded OPCs; [14]): 88.9%; viability at 10 µM (expanded OPCs; [15]): 14.5%
5 | CN1[C@@H]2C[C@@H](OC(=O)[C@H](CO)c3ccccc3)C[C@H]1[C@@H]1O[C@@H]12 [Scopolamine hydrobromide] |  |  |  |  |  |  | 81.1 | 90.5 | 88.5 | activation at 0.08 µM [1, 16]: 21.6%; activation at 0.4 µM [1, 11]: 10.9%
6 | Cc1ncc([N+](=O)[O-])n1CC(C)O (stereo not drawn) [Secnidazole] |  |  |  |  |  | 8.1 | 97.5 | 99.6 | 110 | activation at 10 µM [1, 20]: 2.5%
7 | COc1cc(C[C@@H](CO)[C@H](CO)Cc2ccc(O)c(OC)c2)ccc1O [Secoisolariciresinol] |  |  |  |  |  |  |  |  |  | 2 uM (% Quet) [1, 2]: -3.9 % Quet; 10 uM (% Quet) ([1]; test compound at 10 uM, NCC library screen, relative to quetiapine): 12.5 % Quet; 0.1 µM (% DMSO) (expanded OPCs; [3]): 92.4 % DMSO; 1 µM (% DMSO) (expanded OPCs; [4]): 88.4 % DMSO; 10 µM (% DMSO) (expanded OPCs; [5]): 78.5 % DMSO
8 | C#CCN(C)[C@H](C)Cc1ccccc1 [Selegiline] | 0.64 | 11.2 | 101.6 | 93.8 | 94.0 | 10.1 | 85.8 | 88.8 | 91.2 | activation at 10 µM [1, 20]: 19.7%
9 | CN[C@H]1CC[C@@H](c2ccc(Cl)c(Cl)c2)c2ccccc21 [Sertraline] |  |  | 52.7 | 20.4 | 7.7 |  | 74.6 | 24.6 | 11.1 | activation at 0.08 µM [1, 16]: 0.9%; activation at 0.4 µM [1, 11]: -63.6%; activation at 0.08 µM ([1]; test compound at 0.08 uM, MBP expression relative to quetiapine, NCC library screen, read-out: 0.08 uM (% Quet)): -13.2%; activation at 0.4 µM [1, 21]: -134%
10 | CCC(C)(C)C(=O)O[C@H]1C[C@@H](C)C=C2C=C[C@H](C)[C@H](CC[C@@H]3C[C@@H](O)CC(=O)O3)[C@H]21 [Simvastatin] |  |  | 157.3 | 86.5 | 25.7 |  |  |  |  | activation at 0.4 µM [1, 21]: -105%; activation at 2 µM [1, 22]: -140%
11 | CC(C)NCC(O)c1ccc(NS(C)(=O)=O)cc1 (stereo not drawn) [Sotalol] |  |  |  |  |  | -13.4 | 96.2 | 89.5 | 107 | activation at 10 µM [1, 20]: -22.5%
12 | CN[C@@H]1[C@H](O)[C@H](NC)[C@H]2O[C@@]3(O)C(=O)C[C@@H](C)O[C@H]3O[C@@H]2[C@H]1O [Spectinomycin] | 7.7 | 18.9 | 91.8 | 87.7 | 83.6 |  |  |  |  | 
13 | CC(=O)S[C@@H]1CC2=CC(=O)CC[C@]2(C)[C@H]2CC[C@@]3(C)[C@@H](CC[C@@]34CCC(=O)O4)[C@H]12 [Spironolactone] | -13 | -65.1 | 88.4 | 80.5 | 61.8 |  |  |  |  | 
14 | C[C@]12Cc3c[nH]nc3C[C@@H]1CC[C@@H]1[C@@H]2CC[C@@]2(C)[C@H]1CC[C@]2(C)O [Stanozolol] | 42.2 |  |  |  |  |  |  |  |  | activation at 0.4 µM ([1]; test compound at 0.4 uM, NCC library screen, relative to quetiapine, read-out: 0.4 uM (% Quet)): 6.5%; viability at 0.1 µM (expanded OPCs; [13]): 91.1%; viability at 1 µM (expanded OPCs; [14]): 92.6%; viability at 10 µM (expanded OPCs; [15]): 61.7%
15 | Cc1cn([C@H]2C=C[C@@H](CO)O2)c(=O)[nH]c1=O [Stavudine] |  |  | 90.1 | 97.1 | 101.2 | -25.8 | 110 | 91.5 | 107 | activation at 10 µM [1, 20]: -25%; activation at 2 µM [1, 22]: -21.6%; activation at 10 µM ([1]; test compound at 10 uM, MBP expression relative to quetiapine, NCC library screen, read-out: 10 uM (% Quet)): -35.1%
16 | CC(C)(C)C(O)/C=C/c1ccc2c(c1)OCO2 (stereo not drawn) [Stiripentol] | -12 | -14.2 |  |  |  |  |  |  |  | viability at 0.1 µM (expanded OPCs; [13]): 85.4%; viability at 1 µM (expanded OPCs; [14]): 89.5%; viability at 10 µM (expanded OPCs; [15]): 83.7%
17 | CC(=O)NS(=O)(=O)c1ccc(N)cc1 [Sulfacetamide] | 11.2 | 0.16 |  |  |  |  |  |  |  | viability at 0.1 µM (expanded OPCs; [13]): 90.1%; viability at 1 µM (expanded OPCs; [14]): 91.6%; viability at 10 µM (expanded OPCs; [15]): 89.7%
18 | O=C(O)c1cc(/N=N/c2ccc(S(=O)(=O)Nc3ccccn3)cc2)ccc1O [Sulfasalazine] |  |  |  |  |  | 15.1 | 89 | 89.8 | 94.9 | activation at 10 µM [1, 20]: -0.6%
